Common to all, as to type: cell-based, human
Assay [1] concerns healthy donor CD8+ T cells. In words: Pentamer staining, healthy donor CD3+ cells stimulated with peptide pulsed DCs. The conditions noted are these: two of four normal donors, after four stimulations. How it is done:
Assessment of peptide specific T cells was carried out by staining 10^6 effector cells with 10 μl of PE labeled, HLA-A*0201 pentamers (custom made by Proimmune) for 10 minutes, at room temperature, in the dark. Cells were then washed and co-stained with CD8-FITC for 20 minutes at room temperature. The lymphocyte gate was selected according to FSSCH/SSCH and 50,000 events acquired. Staining with control pentamers was carried out for each sample.
After 24 hours in maturation cytokines, DCs were incubated with peptide (50 μg/ml) for 4 hours. PBMCs or CD3^+ cells from healthy donors or patients with solid tumours were seeded into a 12-well plate, in X-VIVO 15 at a density of 2×10^6/ml. Peptide pulsed, monocyte derived DCs were washed and prepared at 2×10^5/ml. PBMC cultures received peptide pulsed DCs at a stimulator:effector ratio of […], or in the case of unstimulated controls, medium only. IL-7 was added to cultures at a final concentration of 10 U/ml on day 3. Cultures were restimulated by addition of peptide pulsed DCs on, day 7, and in some cases day 14, together with IL-7 and IL-2 (both at 10 U/ml). […] Culture supernatants were analysed for IFNγ content by ELISA. After the 2-3 week culture period, stimulated effector cells were washed and analysed by pentamer staining, intracellular cytokine staining or ELISPOT assays. […]

The subject of assay [2] is patient T cells. In words: IFNγ secretion by patient T cells following in vitro peptide stimulation. The protocol: FIG. 4. IFNγ secretion by patient T cells following in vitro stimulations. (A) IFNγ levels in peptide stimulated cultures from AML patients (same as shown in FIGS. 3 B and E) as measured by ELISpot assays. […] Graphs show IFNγ levels at day 10 (y-axis).
After 24 hours in maturation cytokines, DCs were incubated with peptide (50 μg/ml) for 4 hours. PBMCs or CD3^+ cells from healthy donors or patients with solid tumours were seeded into a 12-well plate, in X-VIVO 15 at a density of 2×10^6/ml. Peptide pulsed, monocyte derived DCs were washed and prepared at 2×10^5/ml. PBMC cultures received peptide pulsed DCs at a stimulator:effector ratio of […], or in the case of unstimulated controls, medium only. IL-7 was added to cultures at a final concentration of 10 U/ml on day 3. Cultures were restimulated by addition of peptide pulsed DCs on, day 7, and in some cases day 14, together with IL-7 and IL-2 (both at 10 U/ml). 200 μl of culture supernatants were collected at various intervals throughout the culture period and replaced with fresh medium. In the case of AML patient cultures, T2 cells were pulsed with peptide and used as stimulators in the same way as autologous DCs described above. Culture supernatants were analysed for IFNγ content by ELISA. After the 2-3 week culture period, stimulated effector cells were washed and analysed by pentamer staining, intracellular cytokine staining or ELISPOT assays.
The T2 line was first examined for immune stimulatory molecules by FACS analysis. […] T2 cells were cultured in serum free conditions to reduce the non-human antigens present in the FCS. T2 cells were incubated with peptide for 4 hours, washed and irradiated and seeded in 96 well plates. Purified T cells (Miltenyi) from patients were added and IFNγ secretion or the expansion of CD8^+ epitope specific T cells measured using pentamers.

Assay [3] has as its system patient CD8+ T cells. Put plainly: pMHC tetramer array with unstimulated patient CD8+ T cells. How it is done:
FIG. 11: pMHC arrays. pMHC molecules were folded into tetramers using either streptavidin alone or AlexaFluor 532 (Molecular Probes) conjugated to streptavidin. Tetramers were spotted onto hydrogel slides using a contact deposition-type printer (Genetix), at a concentration of 0.5 mg/ml in 2% glycerol. Printed arrays were immobilised for 48 hours and stored at 4° C. until use. (FIG. 11 i) CD8+ T cells were negatively isolated from normal donor buffy coats obtained from National Blood Service UK or patient samples from the Department of Haematology, Southampton General Hospital following informed consent using EasySep isolation kits. […] Excess culture medium was removed before slides were analysed on the ProScanArray (PerkinElmer). […] Negatively isolated CD8+ T cells were labelled with CD8-FITC (FL1-H) and pMHC-SAPE (FL2-H) and analysed by flow cytometry using the FACScalibur™. […]
FIG. 12: Analysis of patient samples. […] Positives were only scored where at least 3 of 9 spots had T cells stuck to them and this occurred in both sets of spots in independent locations on the array. […]
In short, pMHC molecules were folded into tetramers using streptavidin alone or streptavidin conjugated to AlexaFluor 532 (Molecular Probes). […] Excess culture medium was removed before slides were analysed on the ProScanArray (PerkinElmer). […]

With “P14: modified PASD1 peptide, SEQ ID NO 21, derivative of wild type peptide P8 (RLWQELSDI; Synthetic sequence amino acid sequence p14)”, in assay [1], the “Pentamer positive T cells” value is “small population”. Besides, in assay [2] (AML Patient I and II), the “IFNγ secretion by expanded P14-specific T cell populations” value is “IFNγ was secreted”. Further, the “Specific IFNγ secretion by ELISpot” value in assay [2] (colon cancer patient T cells stimulated with peptide) is listed as “detectable”. The “HLA-A2 positive ALL and CML patients with P14-specific T cells” value in assay [3] (1 ALL and 1 CML HLA-A2 positive patient) is listed as “neither”. For the same substance, the “HLA-A2 positive AML patients with P14 specific T cells on the pMHC array” value in assay [3] (at presentation, no prior ex vivo stimulation) was “two of four”.

For the origin of these results see patent publication US20110212116A1, “IMMUNOGENIC PEPTIDES AND USES THEREOF” (Cancer Research Technology Limited, priority 2008, published 2011).
